Read-outs that look alike come from different tables or passages of the source. Where only a bound is given, the exact number is not on record here.

The values below come from paper PMC7767221, “Conjugates Containing Two and Three Trithiolato-Bridged Dinuclear Ruthenium(II)-Arene Units as In Vitro Antiparasitic and Anticancer Agents” (Pharmaceuticals, 2020).

The subject of data set [1] is (D-)A24cisPt8.0 cells. Also noted: method as in PMID 32485798. The following applies: cited from earlier work.
The next data set deals with A24 cells. Put plainly: Growth inhibition, 72 h, cell density by Casy cell analyzer. The format is cell-based, human. Particulars: 72 h exposure, mean ± SD. An excerpt: (§1) Human ovarian carcinoma cells A2780 and the cisPt resistant variant A2780cisR were purchased from the European Center of Cell Cultures (ECACC, Salisbury, UK). The HEK-293 cell line was kindly provided by Prof. Mühlemann, University of Bern. The A24 cells and its subline (D-)A24cisPt8.0 were described previously. The cancer cells A24 and (D-)A24cisPt8.0 [105] (human lung adenocarcinoma cells wild type A24 and cisPt resistant (D-)A24cisPt8.0 subline), A2780 and A2780cisR (human ovarian cisplatin sensitive and resistant cancer cells), together with HEK293 (human embryonic kidney) cells as model for normal cells, were included in the study for the evaluation of the ruthenium compounds’ selectivity and cross-resistance with cisplatin. The A24 sublines, A2780 and A2780cisR were cultured in RPMI 1640 medium without riboflavin, phenol red and antibiotics, buffered with 4.5 mM HEPES (BioConcept, Allschwil, Switzerland), supplemented with 10% (v/v) fetal bovine serum (FBS) (Thermo Scientific, Weltham, MA, USA) as the only source of flavins, and with 13.5 mM NaHCO3. In order to retain cisplatin resistance in the A2780cisR cell line, 1 µM cisplatin was added to the medium every 2–3 passages. HEK293 cells were cultured in DMEM/F12 medium, supplemented with 10% (v/v) FBS. At subcultivation, cell monolayers were rinsed with PBS and exposed for 3 min to StemPro Accutase Cell Dissociation Reagent (Thermo Scientific, Weltham, MA, USA) at 36.5 °C. Detached cells were resuspended in culture medium. Cell densities were determined using Moxi flow cytometer according to manufacturer instructions (Orflo Technologies, Ketchum, ID, USA). Experiments and subcultivations were performed using light with wavelengths above 520 nm to prevent photochemical artifacts. Cytostatic drug response was quantified as previously reported. Briefly, HEK293, A24, A2780, A2780cisR, and (D-)A24cisPt8.0 single cell suspensions were freshly prepared from confluent cell layers using Accutase and diluted in culture medium to a cell density of 2 × 10^4 or 8 × 10^4 cells/mL (D-)A24cisPt8.0. 150 µl of this suspension was combined with 150 µl of twice the cisPt or Ru-compound concentration in a 96-well microtiter plate (TPP, Trasadingen, Switzerland). Test plates were incubated under standard conditions for 72 h. Cell densities were determined in a Casy I cell analyzer using Casystat software (OLS OMNI Life Science, Bremen, Germany). Drug concentrations leading to 50% growth inhibition compared to controls were calculated using GraphPad Software (La Jolla, CA, USA). Each experiment was done in triplicates.

The test system of data set [2] is (D-)A24cisPt8.0 cells. Described as above. In kind it is cell-based, human. The following applies: 72 h exposure, mean ± SD.
Description: as §1

For data set [3], the system named is A2780 cells. Described as above. In kind it is cell-based, human. The following applies: 72 h exposure, mean ± SD.
Description: as §1

For another data set, the system named is HEK293 cells. The description is as above. The format is cell-based, human. Particulars: 72 h exposure, mean ± SD.
Description: as §1

The test system of data set [4] is A2780cisR cells. Described as above. In kind it is cell-based, human. Particulars: 72 h exposure, mean ± SD.
Description: as §1

In data set [5] the test system is Neospora caninum. Further details: method as in PMID 28652238, PMID 30620038, PMID 31469986. Particulars: read-out: N. caninum proliferation IC50; cited from earlier work.
Data set [6] has as its system Neospora caninum. Also noted: method as in PMID 28652238, PMID 30620038, PMID 31469986. Particulars: applied orally, neosporosis mouse model; cited from earlier work.
For a further data set, the system named is T. gondii. Further details: method as in PMID 28652238. Particulars: cited from earlier work; for parasiticidal action on T. gondii: applied at 250 nM; for IC50: read-out: T. gondii proliferation IC50.
The subject of data set [7] is HFF (human foreskin fibroblasts). Put plainly: Cytotoxicity in uninfected confluent HFF host cells (AlamarBlue assay). In kind it is cell-based. The following applies: 72 h, non-infected HFF. An excerpt: (§2) If not otherwise stated, all tissue culture media were purchased from Gibco-BRL, and biochemical agents purchased from Sigma-Aldrich. HFF (SCRC-1041.1) were purchased from ATCC, and were maintained in DMEM medium containing 10% fetal calf serum (FCS, Gibco-BRL, Waltham, MA, USA), and antibiotics as described. Transgenic T. gondii β-gal (expressing the β-galactosidase gene from Escherichia coli) were kindly provided by Prof. David Sibley (Washington University, St. Louis, MO, USA) and were maintained in HFF as host cells, and were isolated as described before.
Cytotoxicity assays using uninfected confluent HFF host cells were performed as previously described by AlamarBlue assay. In brief, confluent HFF monolayers in 96 well-plates were exposed to 0.1, 1 and 2.5 µM of each compound. Non-treated HFF as well as DMSO controls (0.01%, 0.1% and 0.25%) were included. After 72 h of incubation at 37 °C/5% CO2, the medium was removed, and plates were washed once with PBS. Resazurin stock solution was diluted 1:200 in PBS and 200 µL were added to each well. Plates were read at excitation wavelength 530 nm and emission wavelength […] at the EnSpire® multimode plate reader (PerkinElmer, Inc). Fluorescence was measured at different timepoints. Relative fluorescence units were calculated from timepoints with linear increase.
On the technique in general: Alamar Blue is a resazurin reagent that responds to reducing activity.

For data set [8], the system named is T. gondii β-gal tachyzoites. Put plainly: T. gondii β-gal tachyzoite proliferation in HFF (β-galactosidase / CPRG assay). In kind it is cell-based, Toxoplasma gondii. The following applies: 72 h, % of DMSO control.
Description: as §2
Compounds were prepared as 1 mM stock solutions in DMSO (dimethyl sulfoxide, Sigma, St. Louis, MO, USA). For activity assays, HFF monolayers were cultured in 96 well plates by seeding 5 × 10^3 HFF per well and allowing them to grow to confluence in phenol-red free culture medium at 37 °C/5% CO2. For infection, T. gondii β-gal tachyzoites were separated from their host cells as described, parasites were isolated and HFF monolayers were infected with freshly isolated tachyzoites (1 × 10^3 per well), with compounds solutions added concomitantly during infection.
For the primary screening, T. gondii β-gal infected HFF were exposed to 0.1 and 1µM of each compound for a period of 72 h, or the corresponding concentration of DMSO (0.01% and 0.1%, respectively) as control. For the determination of IC50 values against T. gondii β-gal, compounds were added at 8 concentrations: 0.007, 0.01, 0.03, 0.06, 0.12, 0.25, 0.5, and 1 µM. After 72 h of culture at 37 °C/5% CO2, the medium was aspirated, and cells were permeabilized by adding 90 µL PBS (phosphate buffered saline) containing 0.05% Triton X-100. After addition of 10 µL 5 mM chlorophenol red-β-D-galactopyranoside (CPRG; Roche Diagnostics, Rotkreuz, Switzerland) dissolved in PBS, the absorption shift was measured at 570 nm wavelength at various time points using an EnSpire® multimode plate reader (PerkinElmer, Inc, Waltham, MA, USA). For the primary screening at 0.1 and 1 μM, the activity, measured as the release of chlorophenol red over time, was calculated as percentage from the respective DMSO control, which represented 100% of T. gondii β-gal growth. For the IC50 assays, the activity measured as the release of chlorophenol red over time was proportional to the number of live parasites down to 50 per well as determined in pilot assays. IC50 values were calculated after the logit-log-transformation of relative growth and subsequent regression analysis. All calculations were performed using the corresponding software tool contained in the Excel software package (Microsoft, Redmond, WA, USA).

Data set [9] has as its system T. gondii β-gal tachyzoites. The following applies: 72 h, tachyzoites grown in HFF; previously reported; cited from earlier work.
In another data set the test system is HFF host cells. Particulars: cited from earlier work.
Data set [10] deals with A2780 cells. Particulars: read-out: IC50 against A2780 cells; cited from earlier work.
The test system of data set [11] is A2780cisR cells. Also noted: method as in PMID 27561129, doi:10.1016/j.jorganchem.2014.10.050, PMID 27187018. The following applies: read-out: IC50 against A2780cisR cells; cited from earlier work.

As for `N.N.[Cl][Pt][Cl]` [cisPt, cis-diamminedichloroplatinum(II)], in the data set with (D-)A24cisPt8.0 cells [1], the “resistance to cisplatin of (D-)A24cisPt8.0 subline compared to the A24 cells” value is “approximately 30 fold”. Besides, the IC50 in the data set with A24 cells came out at 0.333 ± 0.075 µM; with (D-)A24cisPt8.0 cells [2], 8.89 ± 0.446 µM; with A2780 cells [3] it was 0.21 ± 0.119 µM; in the data set on HEK293 cells, 0.515 ± 0.064 µM; in the data set with A2780cisR cells [4] it was 4.08 ± 0.21 µM.
Turning to “[(η^6-p-MeC6H4Pr^i)2Ru2(µ2-SR^1)(µ2-SR^2)2]^+ with R^1 = CH2-C6H4-p-Bu^t, R^2 = C6H4-p-OH, X = Cl^- [D]”, in the data set on Neospora caninum [5], the IC50 is 1 nM. Also, the “parasite load in the central nervous system” value (shortened to “parasite load”) in the data set with Neospora caninum [6] is reported as “did not reduce parasite load in the central nervous system”. Besides, in the data set on T. gondii, the “parasiticidal action on T. gondii” value is given as “did not act in a parasiticidal manner”.
Regarding “[(η6-p-MeC6H4Pri)2Ru2(μ2-SCH2C6H4-p-But)2(μ2-SC6H4-p-O)-(CO)(CH2)3(CO)-(p-O-C6H4-μ2S)Ru2(μ2-SCH2C6H4-p-But)2(η6-p-MeC6H4Pri)2]Cl2 [Compound 7]”, the “HFF viability (%) 0.1 µM” value in data set [7] is 76 ± 2%. Besides, the “HFF viability (%) 1 µM” value in data set [7] worked out at 25 ± 4%. Further, the IC50 in the data set on A24 cells was determined as 0.033 ± 0.002 µM; in the data set with (D-)A24cisPt8.0 cells [2] it was 0.053 ± 0.007 µM; in the data set with A2780 cells [3] it was 0.097 ± 0.041 µM; in the data set with HEK293 cells it was 0.085 ± 0.026 µM; in the data set on A2780cisR cells [4] it was 0.072 ± 0.008 µM. Further, the “T. gondii β-gal growth (%) 0.1 µM” value in data set [8] is recorded as 68 ± 2%. In addition, the “T. gondii β-gal growth (%) 1 µM” value in [8] is recorded as 0 ± 6%.
For `CCc1nc(N)nc(N)c1-c1ccc(Cl)cc1` [Pyrimethamine, pyrimethamine], in data set [9], the IC50 was 326 nM.
Take “[(η^6-p-MeC6H4Pr^i)2Ru2(µ2-S-p-C6H4R)3]^+ with R = p-Me [A]”: the IC50 with Neospora caninum [5] was 15 nM. Also, the “parasite load” value with Neospora caninum [6] was “did not reduce parasite load in the central nervous system”. Moreover, in the data set with T. gondii, the “parasiticidal action on T. gondii” value is “did not act in a parasiticidal manner” and the IC50 is 34 nM. In the data set with HFF host cells, the “dosage that did not affect HFF host cells” value is reported as not below 200 µM.
Turning to “[(η^6-p-MeC6H4Pr^i)2Ru2(µ2-S-p-C6H4R)3]^+ with R = p-Bu^t”, the IC50 was 5 nM with Neospora caninum [5], 30 nM in the data set with A2780 cells [10], 62 nM with T. gondii and 30 nM with A2780cisR cells [11]. The “parasite load” value with Neospora caninum [6] was “did not reduce parasite load in the central nervous system”. Further, the “parasiticidal action on T. gondii” value in the data set with T. gondii is recorded as “did not act in a parasiticidal manner”. For the same compound, the “dosage that did not affect HFF host cells” value with HFF host cells is on record as not below 200 µM.
In the case of “[(η6-p-MeC6H4Pri)2Ru2(μ2-SCH2C6H4-p-But)2(μ2-SC6H4-p-NH)-(CO)-m-C6H4-(CO)-(p-NH-C6H4-μ2S)Ru2(μ2-SCH2C6H4-p-But)2(η6-p-MeC6H4Pri)2]Cl2 [Compound 17]”, in data set [7], the “HFF viability (%) 0.1 µM” value was determined as 102 ± 2%. Further, the “HFF viability (%) 1 µM” value in data set [7] was determined as 106 ± 7%. Moreover, the IC50 with A24 cells was 0.24 ± 0.016 µM; with (D-)A24cisPt8.0 cells [2] it was 0.09 ± 0.003 µM; in the data set with A2780 cells [3] it was 0.416 ± 0.106 µM; in the data set with HEK293 cells, 0.447 ± 0.043 µM; with A2780cisR cells [4] it was 0.644 ± 0.08 µM. Besides, in data set [8], the “T. gondii β-gal growth (%) 0.1 µM” value amounted to 117 ± 7%. In data set [8], the “T. gondii β-gal growth (%) 1 µM” value was determined as 109 ± 6%.
